Assay results: the supplement of paper PMC10307832

Legend:
Assay in all cases: relative viability (nuclei count vs DMSO), 5 days (fraction); higher = more cells survive
[1] = compound: CCn1c(-c2nonc2N)nc2cnc(Oc3cccc(NC(=O)c4ccc(OCCN5CCOCC5)cc4)c3)cc21 + N=C(N)NC(=N)NCCc1ccccc1 [Phenformin] (partner 250 µM)
How it was run: (§1)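 Relative viability is defined as nuclei in treated wells over nuclei in vehicle wells. Duplicate plates were run and medians reported. Lung cancer cell lines in 1536-well plates were dosed by pin tool one day after seeding, with one drug or with a fixed anchor-drug dose plus five library-drug doses (not always all listed) in √10 steps, and nuclei were counted after 5 days.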

[2] = compound: CCC1=CN=CN=C1N2CCN(CC2)CC3=NC4=C(N3)C=C(C=C4)C(F)(F)F + Cc1nc(Nc2ncc(C(=O)Nc3c(C)cccc3Cl)s2)cc(N2CCN(CCO)CC2)n1 [Dasatinib] (partner 0.075 µM)
How it was run: as §1

[3] = compound: CCn1c(-c2nonc2N)nc2cnc(Oc3cccc(NC(=O)c4ccc(OCCN5CCOCC5)cc4)c3)cc21 + CC(=O)Nc1cccc(-n2c(=O)n(C3CC3)c(=O)c3c(Nc4ccc(I)cc4F)n(C)c(=O)c(C)c32)c1 [Trametinib] (partner 0.02 µM)
How it was run: as §1

[4] = compound: CCC1=CN=CN=C1N2CCN(CC2)CC3=NC4=C(N3)C=C(C=C4)C(F)(F)F + COc1cccc2cc(-c3nc([C@H]4CC[C@H](C(=O)O)CC4)n4ncnc(N)c34)[nH]c12 [OSI-027] (partner 0.5 µM)
How it was run: as §1

Cell Line | relative viability ([1]; first compound 0.04 µM) | relative viability ([1]; first compound 0.1265 µM) | relative viability ([1]; first compound 0.4 µM) | relative viability ([1]; first compound 1.265 µM) | relative viability ([1]; first compound 4 µM) | relative viability ([2]; first compound 0.04 µM) | relative viability ([2]; first compound 0.1265 µM) | relative viability ([2]; first compound 0.4 µM) | relative viability ([2]; first compound 1.265 µM) | relative viability ([2]; first compound 4 µM) | relative viability ([3]; first compound 0.04 µM) | relative viability ([3]; first compound 0.1265 µM) | relative viability ([3]; first compound 0.4 µM) | relative viability ([3]; first compound 1.265 µM) | relative viability ([3]; first compound 4 µM) | relative viability ([4]; first compound 0.04 µM) | relative viability ([4]; first compound 0.1265 µM) | relative viability ([4]; first compound 0.4 µM) | relative viability ([4]; first compound 1.265 µM) | relative viability ([4]; first compound 4 µM)
NCI-H322M | 1.12 | 0.982 | 0.632 | 0.557 | 0.579 | 0.261 | 0.257 | 0.258 | 0.239 | 0.249 | 0.631 | 0.604 | 0.522 | 0.487 | 0.57 | 0.608 | 0.495 | 0.59 | 0.449 | 0.527
SK-MES-1 | 0.695 | 0.655 | 0.515 | 0.271 | 0.257 | 0.342 | 0.376 | 0.416 | 0.319 | 0.493 | 0.534 | 0.519 | 0.402 | 0.391 | 0.328 | 0.648 | 0.592 | 0.597 | 0.57 | 0.622
HOP-62 | 0.739 | 0.686 | 0.55 | 0.357 | 0.368 | 0.589 | 0.584 | 0.539 | 0.626 | 0.653 | 0.381 | 0.361 | 0.371 | 0.301 | 0.314 | 0.81 | 0.794 | 0.756 | 0.757 | 0.85
HCC-366 | 0.694 | 0.665 | 0.412 | 0.0542 | 0.0311 | 0.566 | 0.655 | 0.567 | 0.583 | 0.629 | 0.335 | 0.334 | 0.322 | 0.0755 | 0.0555 | 0.789 | 0.898 | 0.939 | 0.297 | 0.911
NCI-H2405 | 0.379 | 0.236 | 0.0695 | 0.124 | 0.13 | 0.158 | 0.189 | 0.207 |  | 0.216 | 0.537 | 0.385 | 0.311 | 0.253 | 0.26 | 0.723 | 0.614 | 0.669 |  | 0.717
LXF-289 | 0.554 | 0.526 | 0.361 | 0.334 | 0.341 | 0.161 | 0.21 | 0.242 | 0.191 | 0.209 | 0.761 | 0.75 | 0.685 | 0.667 | 0.754 | 0.762 | 0.713 | 0.628 | 0.643 | 0.815
NCI-H1793 | 0.459 | 0.464 | 0.253 | 0.212 | 0.168 | 0.392 | 0.382 | 0.32 |  | 0.307 | 0.356 | 0.476 | 0.425 | 0.401 | 0.327 | 0.22 | 0.301 | 0.25 |  | 0.259
LU99A | 0.614 | 0.706 | 0.623 | 0.683 | 0.505 | 0.718 | 0.511 | 0.458 | 0.602 | 0.7 | 0.569 | 0.595 | 0.567 | 0.584 | 0.497 | 0.287 | 0.281 | 0.316 | 0.283 | 0.289
PC-3 [JPC-3] | 0.5 | 0.488 | 0.478 | 0.465 | 0.459 | 0.978 | 0.935 | 0.889 | 1 | 0.969 | 0.693 | 0.589 | 0.591 | 0.598 | 0.537 | 0.65 | 0.67 | 0.705 | 0.731 | 0.728
NCI-H2085 | 0.787 | 0.676 | 0.596 | 0.551 | 0.559 | 0.233 | 0.245 | 0.303 | 0.218 | 0.251 | 0.634 | 0.57 | 0.521 | 0.574 | 0.535 | 0.825 | 0.608 | 0.728 | 0.328 | 0.724
NCI-H2170 | 0.468 | 0.417 | 0.388 | 0.355 | 0.315 | 0.547 | 0.631 | 0.487 | 0.505 | 0.475 | 0.885 | 0.941 | 0.96 | 0.926 | 0.974 | 0.672 | 0.682 | 0.752 | 0.732 | 0.726
HCC-78 | 0.789 | 0.934 |  | 0.766 | 0.881 | 0.327 | 0.416 | 0.374 | 0.316 | 0.363 | 0.796 | 0.469 |  | 0.847 | 1.06 | 0.347 | 0.37 | 0.359 | 0.381 | 0.372
NCI-H1395 | 0.517 | 0.45 | 0.453 | 0.305 | 0.365 | 0.441 | 0.405 | 0.371 | 0.442 | 0.384 | 1.18 | 0.986 | 0.849 | 0.622 | 0.717 | 0.572 | 0.669 | 0.615 | 0.641 | 0.671
NCI-H2228 | 0.41 | 0.31 | 0.329 | 0.318 | 0.331 | 0.515 | 0.44 | 0.409 | 0.416 | 0.712 | 0.558 | 0.495 | 0.345 | 0.349 | 0.362 | 0.535 | 0.633 | 0.487 | 0.635 | 0.656
H3255 | 0.455 | 0.35 | 0.332 | 0.322 | 0.358 | 0.308 | 0.294 | 0.347 | 0.367 | 0.317 | 0.671 | 0.676 | 0.577 | 0.442 | 0.579 | 0.559 | 0.633 | 0.515 | 0.566 | 0.552
HCC-15 | 0.532 | 0.362 | 0.269 |  | 0.364 | 0.632 | 0.552 | 0.597 | 0.624 | 0.594 | 0.38 | 0.36 | 0.348 | 0.39 | 0.378 | 0.622 | 0.651 | 0.621 | 0.563 | 0.599
NCI-H727 | 0.793 | 0.694 | 0.499 | 0.588 | 0.529 | 0.407 | 0.38 | 0.364 |  | 0.314 |  | 0.392 | 0.386 | 0.461 | 0.423 | 0.531 | 0.618 | 0.581 | 0.423 | 0.533
